Assay results reported in EPA's ToxValDB 9.5.
“And” between values parts separate entries of the source, which are not always exact repeats. Equal entries are not always repeated.

What was measured:
[1] = system: Oncorhynchus mykiss; conditions: acute; duration: 96 hours; mortality
[2] = system: Oryctolagus sp.
[3] = system: Rattus norvegicus; conditions: for LD50: acute
[4] = system: Apis mellifera; conditions: acute, mortality
[5] = system: Anas platyrhynchos; conditions: oral, mortality
[6] = system: Colinus virginianus
[7] = system: Gallus gallus
[8] = system: Sus scrofa
[9] = system: Mus musculus; conditions: organ weight
[10] = system: Canidae; conditions: Dog Other
[11] = system: Bovidae; conditions: repeat dose other; oral; hematological
[12] = system: Pontoscolex corethrurus; conditions: acute; mortality
[13] = reproduction developmental, clinical signs
[14] = chronic, duration: 2 years, oral, diet
[15] = short-term, duration: 28 days, mortality
[16] = subchronic, duration: 90 days, oral, diet, F, Not specified, clinical chemistry

## C=CCc1ccc(O)c(OC)c1 [Eugenol]
[1]
  LC50: 5.6 µg/mL and > 10 µg/mL
[2]; [13]
  NOAEL: 100 mg/kg-day
[3]; oral, mortality
  LD50: 1930 mg/kg
[3]; chronic, duration: 2 years, body weight
  NOAEL: 300 mg/kg-day
[3]; developmental, development
  NOEL: 250 mg/kg-day
[3]; [13]
  NOAEL: 100 mg/kg-day

## N#Cc1nn(-c2c(Cl)cc(C(F)(F)F)cc2Cl)c(N)c1S(=O)C(F)(F)F (stereo not drawn) [Fipronil]
[4]; dermal
  LD50: 0.00593 µg/piece
[4]; oral, unspecified
  LD50: 0.00417 µg/piece

## O=c1c2cc(F)ccc2nc(-n2cncn2)n1-c1ccc(Cl)cc1Cl [Fluquinconazole]
[5]; acute, unspecified
  LD50: > 2000 mg/kg-day
[5]; short-term, feed
  LD50: > 210 mg/kg-day
[6]; acute, oral, mortality
  LD50: > 2000 mg/kg-day
[6]; chronic
  NOEL: 1.9 mg/kg-day
[3]; mortality
  LD50: > 112 mg/kg-day
[3]; chronic
  NOAEL: 0.9 mg/kg-day

## [Ca+2].[I-].[I-].[O-2].[O-2].[O-2].[O-2].[O-2].[O-2] [Iodic acid (HIO3), calcium salt (2:1)]
[7]; repeat dose other, no effects
  LEL: 5 mg/kg-day
[7]; subchronic, duration: 35 days, oral, diet, M, no effects
  LEL: 5 mg/kg-day
[8]; repeat dose other, Not specified, no effects
  LEL: 8 mg/kg-day
[8]; short-term, Not specified, no effects
  LEL: 8 mg/kg-day

## CC(C)O [Isopropanol]
[2]; reproduction developmental, duration: 13 days, oral, gavage, F, New Zealand, mortality
  NOAEL: 240 mg/kg-day

## Cc1ccc(C(C)C)cc1O [Isopropyl-o-cresol]
[8]; subchronic, duration: 6 weeks, oral, diet, M/F, Not specified, no effects
  LEL: 2000 mg/kg-day

## CC(C)C1C2CCC1c1c(NC(=O)c3cn(C)nc3C(F)F)cccc12 (stereo not drawn) [Isopyrazam]
[6]; acute, oral, diet, mortality
  LC50: 1310 mg/kg-day
[6]; acute, oral, mortality
  LD50: > 2000 mg/kg-day
[6]; reproduction developmental
  NOEC: 32.5 mg/kg-day
[3]; oral, mortality
  LD50: 2000 mg/kg-day
[3]; chronic
  NOEL: 41 mg/kg-day
[3]; chronic, duration: 2 years, organ weight
  LOAEL: 5.5 mg/kg-day
[3]; developmental, development
  NOAEL: 20 mg/kg-day
[3]; reproduction developmental, duration: 2 years, body weight
  NOAEL: 8 mg/kg-day

## CS(=O)(=O)c1cc(C(F)(F)F)ccc1C(=O)c1cnoc1C1CC1 [Isoxaflutole]
[2]; developmental, development
  NOAEL: 5 mg/kg-day
[3]; chronic, duration: 2 years, histopathology: nonneoplastic
  NOAEL: 2 mg/kg-day
[3]; reproduction developmental, organ weight
  NOAEL: 2 mg/kg-day

## CC(O)(Cn1cncn1)c1ccc(Oc2ccc(Cl)cc2)cc1C(F)(F)F (stereo not drawn) [Mefentrifluconazole]
[9]; chronic, duration: 18 months
  NOAEL: 3.5 mg/kg-day
[9]; subchronic, duration: 90 days
  NOAEL: 2 mg/kg-day
[2]; developmental, development
  NOAEL: 15 mg/kg-day

## CCCCCCCCCCCCN(C)C [N,N-Dimethyldodecan-1-amine]
Reproduction developmental
  NOAEL: 50 mg/kg-day
[3]; [14]
  NOAEL: 50 mg/kg-day
[3]; [15]
  NOAEL: 50 mg/kg-day

## NC(N)=NCC(=O)O [N-(Aminoiminomethyl)glycine]
[7]; subchronic, duration: 35 days, oral, diet, hematological
  LEL: 1500 mg/kg-day

## CN1CCCC1 [N-Methylpyrrolidine]
Reproduction developmental
  NOAEL: 50 mg/kg-day
[3]; [14]
  NOAEL: 50 mg/kg-day
[3]; [15]
  NOAEL: 50 mg/kg-day

## CCCCCCCCC(=O)NCc1ccc(O)c(OC)c1 [N-Vanillylnonanamide]
Repeat dose other
  NOEL: 8.4 mg/kg-day
[3]; subchronic, duration: 90 days, oral, M/F
  NOAEL: 8.4 mg/kg-day

## O=[N+]([O-])[O-] [Nitrate]
[10]; chronic, duration: 125 days, growth
  NOEL: 370 mg/kg-day
[3]; chronic, duration: 2 years, growth
  NOEL: 370 mg/kg-day
[8]; subchronic, duration: 84 days, Not specified, no effects
  NOAEL: 410 mg/kg-day

## O=N[O-] [Nitrite ion]
[11]
  NOAEL: 3.3 mg/kg-day
[3]; chronic, duration: 2 years, oral, drinking water, gross pathology
  NOEL: 6.7 mg/kg-day
[8]; repeat dose other, oral, diet, Not specified, hematological
  NOAEL: 3.3 mg/kg-day

## C[C@@H]1Cc2c(Cl)cc(C(=O)N[C@@H](Cc3ccccc3)C(=O)O)c(O)c2C(=O)O1 [Ochratoxin A]
[10]; short-term, duration: 14 days, histopathology: nonneoplastic
  LEL: 0.2 mg/kg-day
[7]; repeat dose other, oral, diet, organ weight
  LEL: 0.5 mg/kg-day
[8]; [16]
  LOAEL: 0.008 mg/kg-day
  LOEL: 0.008 mg/kg-day

## CCc1ncc(C)nc1CC [Pyrazine, 2,3-diethyl-5-methyl-]
[12]
  LC50: 228 mg/kg

## CCc1nccnc1OC [Pyrazine, 2-ethyl-3-methoxy-]
[12]
  LC50: 243 mg/kg

## O=C([O-])c1ccccc1.[Na+] [Sodium benzoate]
[8]; repeat dose other, oral, diet, M/F, Not specified, no effects
  LEL: 36000 mg/kg-day
[8]; subchronic, duration: 36 days, oral, diet, Duroc, body weight
  LEL: 36000 mg/kg-day
[8]; subchronic, duration: 42 days, oral, diet, Not specified, body weight
  LEL: 36000 mg/kg-day

## CC(c1ccc(C(F)(F)F)nc1)S(C)(=O)=NC#N (stereo not drawn) [Sulfoxaflor]
[4]; duration: 48 hours, oral, unspecified
  LD50: 0.146 µg/piece
[4]; duration: 72 hours, dermal
  LD50: 0.397 µg/piece

## CCc1nc(C)cs1 [Thiazole, 2-ethyl-4-methyl-]
[12]
  LC50: 193 mg/kg

## O=C(O)C(O)Cn1cncn1 (stereo not drawn) [Triazole lactic acid]
[2]; developmental, development
  NOAEL: 30 mg/kg-day

## CCCC(CCC)C(=O)O [Valproic acid]
Repeat dose other, development
  NOAEL: 600 mg/kg-day
